Source: patent publication US11007216B2, “Combination therapy to achieve enhanced antimicrobial activity” (International Business Machines Corporation, priority 2019, dated 2021)

Tested on: A. baumannii
Experiment: minimum inhibitory concentration (MIC) against A. baumannii
Type: cell-based, Acinetobacter baumannii

**Q.** Which MIC does the source give for `CC(=O)OC[C@H]1O[C@@H]([S-])[C@H](OC(C)=O)[C@@H](OC(C)=O)[C@@H]1OC(C)=O.CCP(CC)CC.[Au+]` [Auranofin, (2,3,4,6-Tetra-O-acetyl-1-thio-β-D-glucopyranosato-κS^1)(triethylphosphoranylidene)gold] here?
**A.** Its MIC is 15.6 µg/mL.

**Q.** How did the MIC turn out when Colistin was run?
**A.** The MIC was 1 µg/mL.
